Data: patent US12447153B2, “HER2 mutation inhibitors” (Array BioPharma Inc., priority 2021, dated 2025)

What was measured:
[1] = molecular target: ErbB2 WT (Homo sapiens (Human), UniProt P04626); test: ErbB Enzyme Assay (HTRF KinEASE-TK), Assay 2; type: biochemical
[2] = molecular target: EGFR wild type (EGFR WT) (Homo sapiens (Human), UniProt P00533); test: Cellular Phosphorylation Assay, Assay 5 (EGF-stimulated EGFR phosphorylation, NIH 3T3 cells); type: cell-based
[3] = molecular target: EGFR (Homo sapiens (Human), UniProt P00533); test: ErbB Enzyme Assay (HTRF KinEASE-TK), Assay 3; type: biochemical
[4] = molecular target: ErbB2 with Exon 20 YVMA insertion (HER2-YVMA) (Homo sapiens (Human), UniProt P04626, INS775YVMA); test: Cellular Phosphorylation Assay, Assay 4 (constitutive ErbB2 phosphorylation, NIH 3T3 cells); type: cell-based
ErbB2 with Exon 20 YVMA insertion (HER2-YVMA), sequence (P04626 other isoform, or with tags, fused parts or gaps ins YVMA behind 775): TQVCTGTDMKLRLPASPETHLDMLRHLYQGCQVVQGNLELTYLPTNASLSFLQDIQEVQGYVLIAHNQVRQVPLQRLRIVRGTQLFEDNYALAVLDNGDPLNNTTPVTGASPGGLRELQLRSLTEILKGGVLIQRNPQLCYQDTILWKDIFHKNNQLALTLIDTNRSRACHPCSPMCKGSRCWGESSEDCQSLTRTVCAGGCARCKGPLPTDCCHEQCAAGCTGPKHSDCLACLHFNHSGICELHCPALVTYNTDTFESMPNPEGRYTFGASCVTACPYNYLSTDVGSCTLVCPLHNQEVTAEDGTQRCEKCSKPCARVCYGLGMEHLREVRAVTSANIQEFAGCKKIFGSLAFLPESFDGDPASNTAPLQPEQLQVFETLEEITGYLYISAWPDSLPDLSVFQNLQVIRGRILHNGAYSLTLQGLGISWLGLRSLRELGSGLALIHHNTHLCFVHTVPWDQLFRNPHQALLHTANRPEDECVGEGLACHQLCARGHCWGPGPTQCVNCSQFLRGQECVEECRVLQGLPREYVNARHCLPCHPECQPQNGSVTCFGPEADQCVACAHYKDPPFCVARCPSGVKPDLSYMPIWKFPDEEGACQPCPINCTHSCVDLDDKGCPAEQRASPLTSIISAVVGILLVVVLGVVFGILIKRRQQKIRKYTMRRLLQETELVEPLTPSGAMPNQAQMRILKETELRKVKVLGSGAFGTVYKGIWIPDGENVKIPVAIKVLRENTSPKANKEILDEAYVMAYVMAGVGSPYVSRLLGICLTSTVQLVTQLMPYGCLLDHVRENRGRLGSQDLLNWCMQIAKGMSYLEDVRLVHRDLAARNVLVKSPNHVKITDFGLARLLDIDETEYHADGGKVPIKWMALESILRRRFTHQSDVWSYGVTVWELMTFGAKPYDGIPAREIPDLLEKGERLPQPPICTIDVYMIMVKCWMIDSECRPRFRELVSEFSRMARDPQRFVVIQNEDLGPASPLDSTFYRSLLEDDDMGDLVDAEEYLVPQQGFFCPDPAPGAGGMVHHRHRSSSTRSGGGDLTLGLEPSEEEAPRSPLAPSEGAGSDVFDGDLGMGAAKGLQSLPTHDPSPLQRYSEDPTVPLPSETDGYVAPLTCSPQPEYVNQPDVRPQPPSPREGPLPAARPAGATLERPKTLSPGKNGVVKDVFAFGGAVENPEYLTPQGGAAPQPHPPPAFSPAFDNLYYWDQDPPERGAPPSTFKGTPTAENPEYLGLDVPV

[5] = molecular target: MDR1 (P-gp) (Homo sapiens (Human), UniProt P08183); test: in vitro; conditions: pig, LLC-PK1
MDR1 (P-gp), sequence (P08183 whole entry): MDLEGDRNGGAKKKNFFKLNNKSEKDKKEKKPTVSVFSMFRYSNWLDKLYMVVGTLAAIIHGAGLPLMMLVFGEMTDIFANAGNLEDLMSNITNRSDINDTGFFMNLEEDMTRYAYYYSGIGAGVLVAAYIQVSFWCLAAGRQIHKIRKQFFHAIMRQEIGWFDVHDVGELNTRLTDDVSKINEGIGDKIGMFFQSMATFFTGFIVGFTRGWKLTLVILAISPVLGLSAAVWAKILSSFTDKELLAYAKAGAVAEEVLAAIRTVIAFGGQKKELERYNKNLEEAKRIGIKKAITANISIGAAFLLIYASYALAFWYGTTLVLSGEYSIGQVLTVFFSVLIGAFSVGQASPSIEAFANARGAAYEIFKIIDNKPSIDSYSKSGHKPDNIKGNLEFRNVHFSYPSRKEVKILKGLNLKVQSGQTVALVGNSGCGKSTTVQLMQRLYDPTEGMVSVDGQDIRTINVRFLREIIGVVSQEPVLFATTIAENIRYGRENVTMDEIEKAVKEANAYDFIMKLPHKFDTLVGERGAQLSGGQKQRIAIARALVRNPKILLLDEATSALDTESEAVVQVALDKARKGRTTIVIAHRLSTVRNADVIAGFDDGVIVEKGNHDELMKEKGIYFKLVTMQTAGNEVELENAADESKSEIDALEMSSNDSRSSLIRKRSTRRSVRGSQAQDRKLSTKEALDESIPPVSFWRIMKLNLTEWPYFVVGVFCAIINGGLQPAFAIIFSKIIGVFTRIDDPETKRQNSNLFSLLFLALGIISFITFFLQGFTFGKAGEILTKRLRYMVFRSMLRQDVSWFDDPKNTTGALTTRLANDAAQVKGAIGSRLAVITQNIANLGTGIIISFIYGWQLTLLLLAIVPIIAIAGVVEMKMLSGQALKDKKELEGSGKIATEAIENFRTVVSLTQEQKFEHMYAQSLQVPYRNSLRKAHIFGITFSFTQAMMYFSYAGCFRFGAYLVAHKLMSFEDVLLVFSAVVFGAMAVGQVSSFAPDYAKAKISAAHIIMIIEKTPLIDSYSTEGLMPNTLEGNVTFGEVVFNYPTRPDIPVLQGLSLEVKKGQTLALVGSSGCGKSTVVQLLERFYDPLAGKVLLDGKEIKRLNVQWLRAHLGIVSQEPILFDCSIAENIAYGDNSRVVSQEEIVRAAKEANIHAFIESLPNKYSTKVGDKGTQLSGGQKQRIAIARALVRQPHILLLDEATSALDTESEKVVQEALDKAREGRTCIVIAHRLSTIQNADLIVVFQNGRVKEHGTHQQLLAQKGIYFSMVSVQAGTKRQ

[6] = molecular target: BCRP (Homo sapiens (Human), UniProt Q9UNQ0); test: BCRP MDCKII efflux assay (Assay 7); type: in vitro ADME; conditions: dog; efflux ratio Papp(B-A)/Papp(A-B), BCRP MDCKII cells; read-out: Assay 7 Pe Ratio
BCRP, sequence (Q9UNQ0 whole entry): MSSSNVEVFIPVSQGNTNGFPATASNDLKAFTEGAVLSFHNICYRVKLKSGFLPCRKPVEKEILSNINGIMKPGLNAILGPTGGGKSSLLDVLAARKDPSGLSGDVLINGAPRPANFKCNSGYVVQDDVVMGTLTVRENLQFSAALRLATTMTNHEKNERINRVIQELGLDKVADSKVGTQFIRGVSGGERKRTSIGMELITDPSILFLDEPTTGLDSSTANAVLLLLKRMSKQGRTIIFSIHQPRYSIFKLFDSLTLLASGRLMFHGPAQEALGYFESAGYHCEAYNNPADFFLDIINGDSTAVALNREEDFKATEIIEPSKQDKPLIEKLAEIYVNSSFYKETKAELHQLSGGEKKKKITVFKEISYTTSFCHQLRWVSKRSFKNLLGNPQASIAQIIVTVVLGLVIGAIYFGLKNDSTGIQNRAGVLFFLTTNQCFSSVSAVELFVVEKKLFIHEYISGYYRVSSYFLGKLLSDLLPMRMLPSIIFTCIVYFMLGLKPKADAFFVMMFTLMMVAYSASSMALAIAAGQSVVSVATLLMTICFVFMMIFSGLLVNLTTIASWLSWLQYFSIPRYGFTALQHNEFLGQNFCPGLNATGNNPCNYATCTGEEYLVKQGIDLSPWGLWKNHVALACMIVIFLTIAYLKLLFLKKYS
Procedure: Assay conditions included with and without the BCRP-specific inhibitor, KO143, at a concentration of 0.3 μM to ascertain the contribution of BCRP to the efflux value of the test compound.
Final organic concentration in the assay was 1%.

[7] = EGF-stimulated EGFR WT phosphorylation
[8] = cellular EGFR WT phosphorylation, EGF-stimulated
[9] = cellular ErbB2 YVMA phosphorylation

ErbB2 WT, sequence (P04626 23-1255): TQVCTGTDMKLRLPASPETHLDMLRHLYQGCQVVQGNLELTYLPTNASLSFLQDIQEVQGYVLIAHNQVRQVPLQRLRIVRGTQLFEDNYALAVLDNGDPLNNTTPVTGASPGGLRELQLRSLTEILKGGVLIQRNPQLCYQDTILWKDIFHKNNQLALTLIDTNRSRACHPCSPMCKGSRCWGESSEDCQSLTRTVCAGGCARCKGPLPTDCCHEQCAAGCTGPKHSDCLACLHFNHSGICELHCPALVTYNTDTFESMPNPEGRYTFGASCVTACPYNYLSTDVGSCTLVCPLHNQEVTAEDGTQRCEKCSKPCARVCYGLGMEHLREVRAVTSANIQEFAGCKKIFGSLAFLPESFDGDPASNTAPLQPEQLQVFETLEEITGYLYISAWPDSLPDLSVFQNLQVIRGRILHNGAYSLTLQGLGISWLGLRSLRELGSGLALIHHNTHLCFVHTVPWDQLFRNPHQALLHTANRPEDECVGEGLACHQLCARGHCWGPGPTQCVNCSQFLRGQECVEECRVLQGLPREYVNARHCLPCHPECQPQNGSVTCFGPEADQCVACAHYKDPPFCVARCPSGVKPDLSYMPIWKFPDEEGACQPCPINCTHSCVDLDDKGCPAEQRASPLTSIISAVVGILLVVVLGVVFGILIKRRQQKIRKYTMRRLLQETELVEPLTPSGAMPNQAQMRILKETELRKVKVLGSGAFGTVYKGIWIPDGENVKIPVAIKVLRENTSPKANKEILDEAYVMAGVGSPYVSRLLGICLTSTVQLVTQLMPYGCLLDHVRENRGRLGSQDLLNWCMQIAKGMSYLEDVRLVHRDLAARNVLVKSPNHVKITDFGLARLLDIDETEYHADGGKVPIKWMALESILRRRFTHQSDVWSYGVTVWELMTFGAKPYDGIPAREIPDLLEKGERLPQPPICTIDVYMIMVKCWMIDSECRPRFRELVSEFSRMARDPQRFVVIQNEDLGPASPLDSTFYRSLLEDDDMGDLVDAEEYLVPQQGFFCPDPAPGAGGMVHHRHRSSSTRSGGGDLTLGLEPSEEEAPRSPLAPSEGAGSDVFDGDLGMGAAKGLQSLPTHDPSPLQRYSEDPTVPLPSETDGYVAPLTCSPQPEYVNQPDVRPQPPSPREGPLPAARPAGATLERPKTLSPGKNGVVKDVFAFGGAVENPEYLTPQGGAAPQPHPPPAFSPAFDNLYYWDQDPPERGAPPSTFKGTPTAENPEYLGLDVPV

| IC50 ([1]; ErbB2 WT enzyme) [µM] | IC50 [2, 7] [µM] | IC50 ([3]; EGFR enzyme) [µM] | IC50 ([4]; ErbB2 YVMA phosphorylation) [µM] | efflux ratio at 2 h, 1 µM [5] | efflux ratio at 2 h, 1 µM [6] | IC50 ([1]; ErbB2 WT enzyme assay) [µM] | IC50 [2, 8] [µM] | IC50 ([3]; EGFR enzyme assay) [µM] | IC50 [4, 9] [µM] | SMILES |
| --- | --- | --- | --- | --- | --- | --- | --- | --- | --- | --- |
| 0.172 | 2.41 | 5.35 | 0.0222 | 3.3 | 4.8 |  |  |  |  | C=CC(=O)N1C[C@H]2CC[C@@H]1CN2c1ccc2ncnc(Nc3ccc(Oc4ccn5ncnc5c4)c(C)c3F)c2n1 [Example 175, 1-((1R,4R)-5-(4-((4-([1,2,4]triazolo[1,5-a]pyridin-7-yloxy)-2-fluoro-3-methylphenyl)amino)pyrido[3,2-d]pyrimidin-6-yl)-2,5-diazabicyclo[2.2.2]octan-2-yl)prop-2-en-1-one] |
| 0.0299 | 1.94 | 3.9 | 0.0114 | 1.6 | 5.2 |  |  |  |  | C=CC(=O)N1CC(c2ccc3ncnc(Nc4ccc(Oc5ccc6c(c5)ncn6C)c(C)c4F)c3n2)CC1C (stereo not drawn) [Example 124, 1-(4-(4-((2-fluoro-3-methyl-4-((1-methyl-1H-benzo[d]imidazol-5-yl)oxy)phenyl)amino)pyrido[3,2-d]pyrimidin-6-yl)-2-methylpyrrolidin-1-yl)prop-2-en-1-one] |
| 0.0659 | ≥ 5 | 7.93 | 0.0166 | 1.4 | 1.4 |  |  |  |  | C=CC(=O)N1CCC[C@@H](c2ccc3ncnc(Nc4cc(C)c(Oc5ccc6c(c5)ncn6C)cc4F)c3n2)C1 (racemic) [Example 129, rac-(R)-1-(3-(4-((2-fluoro-5-methyl-4-((1-methyl-1H-benzo[d]imidazol-5-yl)oxy)phenyl)amino)pyrido[3,2-d]pyrimidin-6-yl)piperidin-1-yl)prop-2-en-1-one] |
| 0.0541 | ≥ 5 | 6.09 | 0.0101 | 2.2 | 4.1 |  |  |  |  | C=CC(=O)N1C[C@H]2C[C@@H]1CN(c1ccc3ncnc(Nc4ccc(Oc5ccc6c(c5)ncn6C)c(C)c4F)c3n1)C2 [Example 118, 1-((1S,5R)-3-(4-((2-fluoro-3-methyl-4-((1-methyl-1H-benzo[d]imidazol-5-yl)oxy)phenyl)amino)pyrido[3,2-d]pyrimidin-6-yl)-3,6-diazabicyclo[3.2.1]octan-6-yl)prop-2-en-1-one] |
| 0.0458 | 0.665 | ≥ 10 | 0.0147 | 1.1 | 2.5 |  |  |  |  | C=CC(=O)N1CCN(c2ccc3ncnc(Nc4cc(C)c(Oc5ccn6ncnc6c5)cc4F)c3n2)C[C@H]1CC [Example 164, (R)-1-(4-(4-((4-([1,2,4]triazolo[1,5-a]pyridin-7-yloxy)-2-fluoro-5-methylphenyl)amino)pyrido[3,2-d]pyrimidin-6-yl)-2-ethylpiperazin-1-yl)prop-2-en-1-one] |
| 0.0118 | 2.05 | 1.33 | 0.0087 | 1.4 | 5.9 |  |  |  |  | C=CC(=O)N1CCN(c2ccc3ncnc(Nc4ccc(Oc5cnc6c(c5)ncn6C)c(Cl)c4)c3n2)CC1(C)C [Example 249] |
|  |  |  |  | 1 | 1.9 | 0.464 | ≥ 5 | ≥ 10 | 0.0297 | C=CC(=O)N1[C@H](C)CN(c2ccc3ncnc(Nc4ccc(Oc5cnc6c(c5)ncn6C)c(C)c4F)c3n2)C[C@@H]1C [Example 442] |
| 0.519 | ≥ 5 | ≥ 10 | 0.0251 | 0.9 | 1.7 |  |  |  |  | C=CC(=O)N1CCN(c2ccc3ncnc(Nc4ccc(Oc5cnc6c(c5)ncn6C)c(C)c4F)c3n2)C[C@@H]1C1CC1 [Example 167, (S)-1-(2-cyclopropyl-4-(4-((2-fluoro-3-methyl-4-((3-methyl-3H-imidazo[4,5-b]pyridin-6-yl)oxy)phenyl)amino)pyrido[3,2-d]pyrimidin-6-yl)piperazin-1-yl)prop-2-en-1-one] |
|  |  |  |  | 1.2 | 3.4 | 0.0172 | 4.04 | 7.76 | 0.0339 | C=CC(=O)N1[C@H](C)CN(c2ccc3ncnc(Nc4cc(Cl)c(Oc5ccn6ncnc6c5)cc4F)c3n2)C[C@@H]1C [Example 265] |
| 0.977 | 0.84 | ≥ 10 | 0.066 | 1.7 | 2.4 |  |  |  |  | C=CC(=O)N1CCC(Oc2ccc3ncnc(Nc4ccc(Oc5ccc6cn(C)nc6c5)c(Cl)c4F)c3n2)CC1 [Example 9, 1-(4-((4-((3-chloro-2-fluoro-4-((2-methyl-2H-indazol-6-yl)oxy)phenyl)amino)pyrido[3,2-d]pyrimidin-6-yl)oxy)piperidin-1-yl)prop-2-en-1-one] |
|  |  |  |  | 1.5 | 2.1 | 0.0187 | 0.961 | 2.86 | 0.0197 | C=CC(=O)N1CCN(c2ccc3ncnc(Nc4cc(Cl)c(Oc5ccn6ncnc6c5)cc4F)c3n2)CC1(C)C [Example 326] |
|  |  |  |  | 1.7 | 4.6 | 0.0189 | ≥ 5 | ≥ 10 | 0.0324 | C=CC(=O)N1CCN(c2ccc3ncnc(Nc4ccc(Oc5ccc6c(c5)ncn6C)c(Cl)c4F)c3n2)CC1(C)C [Example 262] |
| 0.0084 | 0.104 | 0.22 | 0.004 | 1.2 | 1.4 |  |  |  |  | C=CC(=O)N1CCC(Oc2ccc3ncnc(Nc4ccc(Oc5ccn6ncnc6c5)c(Cl)c4F)c3n2)CC1 [Example 13, 1-(4-((4-((4-([1,2,4]triazolo[1,5-a]pyridin-7-yloxy)-3-chloro-2-fluorophenyl)amino)pyrido[3,2-d]pyrimidin-6-yl)oxy)piperidin-1-yl)prop-2-en-1-one] |
|  |  |  |  | 0.9 | 2 | 0.0795 | ≥ 5 | 2.71 | 0.0366 | C=CC(=O)N1C[C@H]2C[C@@H]1[C@H](c1ccc3ncnc(Nc4cc(C)c(Oc5cnc6c(c5)ncn6C)cc4F)c3n1)C2 [Example 416] |
| 0.0715 | ≥ 5 | ≥ 10 | 0.0089 | 0.8 | 1.9 |  |  |  |  | C=CC(=O)N1CCN(c2ccc3ncnc(Nc4ccc(Oc5cnc6c(c5)ncn6C)c(C)c4F)c3n2)CC1(C)C [Example 247, 1-(4-(4-((2-fluoro-3-methyl-4-((3-methyl-3H-imidazo[4,5-b]pyridin-6-yl)oxy)phenyl)amino)pyrido[3,2-d]pyrimidin-6-yl)-2,2-dimethylpiperazin-1-yl)prop-2-en-1-one] |

| SMILES | IC50 ([1]; ErbB2 WT enzyme) [µM] | IC50 [2, 7] [µM] | IC50 ([3]; EGFR enzyme) [µM] | IC50 ([4]; ErbB2 YVMA phosphorylation) [µM] | efflux ratio at 2 h, 1 µM [5] | efflux ratio at 2 h, 1 µM [6] | IC50 ([1]; ErbB2 WT enzyme assay) [µM] | IC50 [2, 8] [µM] | IC50 ([3]; EGFR enzyme assay) [µM] | IC50 [4, 9] [µM] |
| --- | --- | --- | --- | --- | --- | --- | --- | --- | --- | --- |
| C=CC(=O)N1[C@H]2CC[C@@H]1[C@@H](c1ccc3ncnc(Nc4ccc(Oc5ccn6ncnc6c5)c(C)c4F)c3n1)C2 (single isomer, unassigned) [Example 229] | 0.0167 | ≥ 5 | 0.38 | 0.0299 | 0.7 | 3 |  |  |  |  |
| C=CC(=O)N1CC2CC(C1)N2c1ccc2ncnc(Nc3ccc(Oc4ccn5ncnc5c4)c(C)c3F)c2n1 [Example 46, 1-(6-(4-((4-([1,2,4]triazolo[1,5-a]pyridin-7-yloxy)-2-fluoro-3-methylphenyl)amino)pyrido[3,2-d]pyrimidin-6-yl)-3,6-diazabicyclo[3.1.1]heptan-3-yl)prop-2-en-1-one] | 0.119 | 2.1 | 1.27 | 0.0182 | 2.5 | 2.5 |  |  |  |  |
| C=CC(=O)N1[C@@H]2CC[C@H]1[C@H](c1ccc3ncnc(Nc4ccc(Oc5cnc6c(c5)ncn6C)c(C)c4)c3n1)C2 [Example 408] |  |  |  |  | 1.1 | 2.2 | 0.032 | ≥ 5 | 0.498 | 0.0237 |
| C=CC(=O)N1[C@@H]2CC[C@H]1CC(c1ccc3ncnc(Nc4ccc(Oc5ccn6ncnc6c5)c(C)c4F)c3n1)C2 (stereo partly drawn) [Example 369] |  |  |  |  | 1.1 | 4.3 | 0.0671 | 1.36 | 2.48 | 0.0224 |
| C=CC(=O)N1CC2CC(C1)N2c1ccc2ncnc(Nc3ccc(Oc4cnc5c(c4)ncn5C)c(C)c3F)c2n1 [Example 435] |  |  |  |  | 1.5 | 2 | 0.315 | 1.14 | 0.587 | 0.016 |
| C=CC(=O)N1[C@@H]2CC[C@H]1C[C@@H](c1ccc3ncnc(Nc4ccc(Oc5ccn6ncnc6c5)c(Cl)c4F)c3n1)C2 [Example 214, 1-((1R,3r,5S)-3-(4-((4-([1,2,4]triazolo[1,5-a]pyridin-7-yloxy)-3-chloro-2-fluorophenyl)amino)pyrido[3,2-d]pyrimidin-6-yl)-8-azabicyclo[3.2.1]octan-8-yl)prop-2-en-1-one] | 0.0216 | ≥ 5 | 0.279 | 0.025 | 1.4 | 3.8 |  |  |  |  |
